Laboratory results reported in patent publication US11109593B2, “Isoxazolin-5-one derivative and herbicide containing same as active ingredient” (HOKKO CHEMICAL INDUSTRY CO., LTD., priority 2017, dated 2021).
Blank lines part the entries; values can stand above or below the compound they belong to.

Key:
[1] = test system: southern crabgrass; assay: Test Example 3: herbicidal effect test by treatment of dry field farming soil (one day after seeding); format: in vivo; conditions: Digitaria ciliaris, 336 h, 120 g/10a active ingredient, evaluated 14 days after treatment, read-out: herbicidal rate, southern crabgrass
In short: (§1)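 Weeds were seeded into the upper soil layer of alluvial field soil and, one day afterwards, the soil surface was sprayed with water-diluted emulsion delivering 120 g active ingredient per 10 ares. Mean plant dry weight relative to untreated pots after 14 days gave the herbicidal rate, tested in duplicate.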

[2] = test system: Amaranthus viridis; assay: as above; format: in vivo; conditions: Amaranthus viridis, 336 h, 120 g/10a active ingredient, evaluated 14 days after treatment, read-out: herbicidal rate, Amaranthus viridis
In short: as §1

[3] = test system: Chenopodium album; assay: as above; format: in vivo; conditions: Chenopodium album, 336 h, 120 g/10a active ingredient, evaluated 14 days after treatment, read-out: herbicidal rate, Chenopodium album
In short: as §1

[4] = test system: Echinochloa crus-galli; assay: as above; format: in vivo; conditions: Echinochloa crus-galli, 336 h, 120 g/10a active ingredient, evaluated 14 days after treatment, read-out: herbicidal rate, Echinochloa crus-galli
In short: as §1

[5] = test system: broad leaf weeds (Lindernia pyxidaria and Monochoria vaginalis); assay: Test Example 2: herbicidal effect test by treatment during growing period in paddy rice cultivation (seven days after seeding); format: in vivo; conditions: 336 h, 120 g/10a active ingredient, assessed 14 days after treatment, dry weight vs untreated area
In short: (§2)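 Sow 30 seeds per species (0–1 cm) into puddled, fertilized paddy soil; keep flooded ~3 cm in greenhouse. Day 7 after seeding: drop water-diluted emulsion, 120 g a.i./10 ares. Harvest 14 d post-treatment; compare dry weight with untreated pots (duplicate).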

[6] = test system: Scirpus juncoides; assay: as above; format: in vivo; conditions: Schoenoplectiella juncoides, 336 h, 120 g/10a active ingredient, assessed 14 days after treatment, dry weight vs untreated area, read-out: herbicidal rate (%) Scirpus juncoides
In short: as §2

[7] = test system: Echinochloa crus-galli; assay: as above; format: in vivo; conditions: Echinochloa crus-galli, 336 h, 120 g/10a active ingredient, assessed 14 days after treatment, dry weight vs untreated area, read-out: herbicidal rate (%) Echinochloa crus-galli
In short: as §2

[8] = test system: broad leaf weeds (Lindernia pyxidaria and Monochoria vaginalis); assay: Test Example 1: herbicidal effect test by treatment of rice paddy soil (immediately after seeding); format: in vivo; conditions: 336 h, 120 g/10a active ingredient, dry weight vs untreated area, 14 days after treatment
In short: (§3)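 Values are herbicidal rates (%) derived from average plant dry weight in treated versus untreated pots 14 days after treatment, run in duplicate. Treatment was a water-diluted emulsion dropped into flooded paddy soil right after sowing, at 120 g active ingredient per 10 ares.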

[9] = test system: Scirpus juncoides; assay: as above; format: in vivo; conditions: in Schoenoplectiella juncoides, 336 h, 120 g/10a active ingredient, dry weight vs untreated area, 14 days after treatment, read-out: Herbicidal rate (%) Scirpus juncoides
In short: as §3

[10] = test system: Echinochloa crus-galli; assay: as above; format: in vivo; conditions: in Echinochloa crus-galli, 336 h, 120 g/10a active ingredient, dry weight vs untreated area, 14 days after treatment, read-out: Herbicidal rate (%) Echinochloa crus-galli
In short: as §3

[11] = test system: southern crabgrass; assay: Test Example 4: herbicidal effect test by treatment of leave and stem in dry field farming (seven days after seeding); format: in vivo; conditions: Digitaria ciliaris, 336 h; 120 g/10a active ingredient; emulsion sprayed seven days after seeding; evaluated 14 days after treatment; read-out: herbicidal effect (herbicidal rate), southern crabgrass
In short: (§4)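 Twenty seeds per species were mixed into the top 1 cm of alluvial soil in 36 cm^2 pots; emulsions were sprayed seven days after seeding at 100 L per 10 ares (120 g active ingredient per 10 ares). Herbicidal rate (%) = {1 − treated/untreated mean dry weight} × 100, 14 days after treatment, duplicate.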

[12] = test system: Amaranthus viridis; assay: as above; format: in vivo; conditions: Amaranthus viridis, 336 h; 120 g/10a active ingredient; emulsion sprayed seven days after seeding; evaluated 14 days after treatment; read-out: herbicidal effect (herbicidal rate), Amaranthus viridis
In short: as §4

[13] = test system: Chenopodium album; assay: as above; format: in vivo; conditions: Chenopodium album, 336 h; 120 g/10a active ingredient; emulsion sprayed seven days after seeding; evaluated 14 days after treatment; read-out: herbicidal effect (herbicidal rate), Chenopodium album
In short: as §4

[14] = test system: Echinochloa crus-galli; assay: as above; format: in vivo; conditions: Echinochloa crus-galli, 336 h; 120 g/10a active ingredient; emulsion sprayed seven days after seeding; evaluated 14 days after treatment; read-out: herbicidal effect (herbicidal rate), Echinochloa crus-galli
In short: as §4

[15] = Lindernia pyxidaria, read-out: herbicidal rate (%) Lindernia pyxidaria
[16] = Monochoria vaginalis, read-out: herbicidal rate (%) Monochoria vaginalis
[17] = Monochoria vaginalis, read-out: Herbicidal rate (%) Monochoria vaginalis
[18] = in Lindernia, Lindernia pyxidaria, read-out: Herbicidal rate (%) Lindernia pyxidaria

melting point: 116 to 118 °C
SMILES: COCC(C)n1oc(=O)c(Cc2ccccc2N(S(=O)(=O)C(F)(F)F)S(=O)(=O)C(F)(F)F)c1C (centres unmarked) [Compound 1-997, 1,1,1-trifluoro-N-[2-[[2-(2-methoxy-1-methyl-ethyl)-3-methyl-5-oxo-isoxazol-4-yl]methyl]phenyl]-N-(trifluoromethylsulfonyl)methanesulfonamide]
pest or weed control at 1200 g/ha [1]: 90% | pest or weed control at 1200 g/ha [2]: 50% | pest or weed control at 1200 g/ha [3]: 50% | pest or weed control at 1200 g/ha [4]: 90% | pest or weed control at 1200 g/ha [5, 15]: 70% | pest or weed control at 1200 g/ha [5, 16]: 90% | pest or weed control at 1200 g/ha [6]: 90% | pest or weed control at 1200 g/ha [7]: 90% | pest or weed control at 1200 g/ha [8, 17]: 80% | pest or weed control at 1200 g/ha [8, 18]: 90% | pest or weed control at 1200 g/ha [9]: 90% | pest or weed control at 1200 g/ha [10]: 90% | pest or weed control at 1200 g/ha [11]: 40% | pest or weed control at 1200 g/ha [12]: 40% | pest or weed control at 1200 g/ha [13]: 0% | pest or weed control at 1200 g/ha [14]: 70%

melting point: 75 to 80 °C
SMILES: CCC(C)n1oc(=O)c(Cc2ccccc2N(C(=O)OC)S(=O)(=O)C(F)(F)F)c1C (centres unmarked) [Compound 1-577, methyl N-[2-[(3-methyl-5-oxo-2-sec-butyl-isoxazol-4-yl)methyl]phenyl]-N-(trifluoromethylsulfonyl)carbamate]
pest or weed control at 1200 g/ha [1]: 90% | pest or weed control at 1200 g/ha [2]: 90% | pest or weed control at 1200 g/ha [3]: 90% | pest or weed control at 1200 g/ha [4]: 90% | pest or weed control at 1200 g/ha [5, 15]: 90% | pest or weed control at 1200 g/ha [5, 16]: 90% | pest or weed control at 1200 g/ha [6]: 90% | pest or weed control at 1200 g/ha [7]: 90% | pest or weed control at 1200 g/ha [8, 17]: 90% | pest or weed control at 1200 g/ha [8, 18]: 90% | pest or weed control at 1200 g/ha [9]: 90% | pest or weed control at 1200 g/ha [10]: 90% | pest or weed control at 1200 g/ha [11]: 90% | pest or weed control at 1200 g/ha [12]: 40% | pest or weed control at 1200 g/ha [13]: 40% | pest or weed control at 1200 g/ha [14]: 90%

melting point: 107 to 109 °C
SMILES: COCC(C)n1oc(=O)c(Cc2ccccc2NS(=O)(=O)C(F)(F)F)c1C (centres unmarked) [Compound 1-149, 1,1,1-trifluoro-N-[2-[[2-(2-methoxy-1-methyl-ethyl)-3-methyl-5-oxo-isoxazol-4-yl]methyl]phenyl]methanesulfonamide]
pest or weed control at 1200 g/ha [1]: 90% | pest or weed control at 1200 g/ha [2]: 40% | pest or weed control at 1200 g/ha [3]: 40% | pest or weed control at 1200 g/ha [4]: 90% | pest or weed control at 1200 g/ha [5, 15]: 90% | pest or weed control at 1200 g/ha [5, 16]: 90% | pest or weed control at 1200 g/ha [6]: 90% | pest or weed control at 1200 g/ha [7]: 100% | pest or weed control at 1200 g/ha [8, 17]: 90% | pest or weed control at 1200 g/ha [8, 18]: 90% | pest or weed control at 1200 g/ha [9]: 90% | pest or weed control at 1200 g/ha [10]: 90% | pest or weed control at 1200 g/ha [11]: 90% | pest or weed control at 1200 g/ha [12]: 40% | pest or weed control at 1200 g/ha [13]: 40% | pest or weed control at 1200 g/ha [14]: 90%

melting point: 120 to 122 °C
SMILES: Cc1c(Cc2ccccc2N(S(=O)(=O)C(F)(F)F)S(=O)(=O)C(F)(F)F)c(=O)on1CC(C)C [Compound 1-967, 1,1,1-trifluoro-N-[2-[(2-isobutyl-3-methyl-5-oxoisoxazol-4-yl)methyl]phenyl]-N-(trifluoromethylsulfonyl)methanesulfonamide]
pest or weed control at 1200 g/ha [1]: 90% | pest or weed control at 1200 g/ha [2]: 80% | pest or weed control at 1200 g/ha [3]: 40% | pest or weed control at 1200 g/ha [4]: 50% | pest or weed control at 1200 g/ha [5, 15]: 100% | pest or weed control at 1200 g/ha [5, 16]: 90% | pest or weed control at 1200 g/ha [6]: 80% | pest or weed control at 1200 g/ha [7]: 90% | pest or weed control at 1200 g/ha [8, 17]: 100% | pest or weed control at 1200 g/ha [8, 18]: 90% | pest or weed control at 1200 g/ha [9]: 90% | pest or weed control at 1200 g/ha [10]: 90% | pest or weed control at 1200 g/ha [11]: 0% | pest or weed control at 1200 g/ha [12]: 40% | pest or weed control at 1200 g/ha [13]: 40% | pest or weed control at 1200 g/ha [14]: 60%
